The results in this text go back to article PMC10609499, “In Vitro Assessment of the Antidiabetic and Anti-Inflammatory Potential of Artemisia absinthium, Artemisia vulgaris and Trigonella foenum-graecum Extracts Processed Using Membrane Technologies” (Molecules, 2023).

Read-outs that look alike come from different tables or passages of the source.

For test [1], the target named is T1, lipoxygenase (EC 1.13.11.12) (Glycine max, UniProt P08170).
T1 sequence (P08170 1-839): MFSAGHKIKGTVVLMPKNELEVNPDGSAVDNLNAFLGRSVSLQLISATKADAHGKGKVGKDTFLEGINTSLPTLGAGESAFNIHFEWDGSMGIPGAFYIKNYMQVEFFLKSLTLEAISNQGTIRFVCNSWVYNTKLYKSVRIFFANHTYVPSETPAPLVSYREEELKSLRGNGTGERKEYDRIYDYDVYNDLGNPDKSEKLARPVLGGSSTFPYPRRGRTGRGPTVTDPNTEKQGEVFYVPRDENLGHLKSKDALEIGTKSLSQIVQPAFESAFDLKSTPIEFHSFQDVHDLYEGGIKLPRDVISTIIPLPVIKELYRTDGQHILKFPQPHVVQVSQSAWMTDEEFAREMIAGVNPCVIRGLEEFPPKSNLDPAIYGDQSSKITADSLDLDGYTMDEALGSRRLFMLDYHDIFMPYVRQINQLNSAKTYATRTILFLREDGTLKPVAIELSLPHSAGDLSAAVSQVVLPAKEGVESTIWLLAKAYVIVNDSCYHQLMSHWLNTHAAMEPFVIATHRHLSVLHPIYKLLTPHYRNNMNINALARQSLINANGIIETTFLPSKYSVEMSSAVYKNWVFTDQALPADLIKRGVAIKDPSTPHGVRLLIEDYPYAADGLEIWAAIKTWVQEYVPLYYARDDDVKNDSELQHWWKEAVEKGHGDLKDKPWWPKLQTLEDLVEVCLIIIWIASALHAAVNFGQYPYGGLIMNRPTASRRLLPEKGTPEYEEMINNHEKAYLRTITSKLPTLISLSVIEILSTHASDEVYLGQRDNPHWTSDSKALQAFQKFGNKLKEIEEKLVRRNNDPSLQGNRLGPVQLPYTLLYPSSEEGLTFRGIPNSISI
Nature of the test: Lipoxygenase inhibition assay. The test is classed as biochemical. The conditions noted are these: 234 nm, mean ± SD of triplicate. The protocol: (§1) The IC50 values were calculated via the linear regression analysis. Significant statistical differences were considered at p < 0.05.

The target in test [2] is α-glucosidase from Saccharomyces cerevisiae (EC 3.2.1.20) (Saccharomyces cerevisiae, UniProt P53341). Nature of the test: α-Glucosidase inhibition assay. In kind it is biochemical. The protocol: as §1
Chain of α-glucosidase from Saccharomyces cerevisiae (EC 3.2.1.20) (P53341 whole entry): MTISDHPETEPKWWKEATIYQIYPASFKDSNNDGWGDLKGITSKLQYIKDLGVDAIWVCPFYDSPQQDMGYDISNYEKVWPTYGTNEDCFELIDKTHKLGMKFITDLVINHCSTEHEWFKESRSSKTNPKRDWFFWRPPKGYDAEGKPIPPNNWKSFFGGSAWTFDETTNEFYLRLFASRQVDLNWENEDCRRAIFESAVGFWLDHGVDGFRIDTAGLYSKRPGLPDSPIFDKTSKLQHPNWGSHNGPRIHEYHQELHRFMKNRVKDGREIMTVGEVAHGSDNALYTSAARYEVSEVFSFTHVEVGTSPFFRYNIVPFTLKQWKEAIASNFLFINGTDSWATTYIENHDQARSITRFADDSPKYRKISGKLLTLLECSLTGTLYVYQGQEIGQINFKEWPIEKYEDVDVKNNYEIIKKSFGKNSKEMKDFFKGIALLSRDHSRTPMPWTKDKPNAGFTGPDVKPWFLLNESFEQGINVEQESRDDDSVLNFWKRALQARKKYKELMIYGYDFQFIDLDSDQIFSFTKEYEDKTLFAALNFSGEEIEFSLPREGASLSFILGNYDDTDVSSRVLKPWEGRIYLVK
The target of test [3] is T2, α-amylase from hog pancreas (EC 3.2.1.1) (Sus scrofa, UniProt P00690).
T2 construct: from tissue; host or cells: hog pancreas
T2 sequence (P00690 16-511): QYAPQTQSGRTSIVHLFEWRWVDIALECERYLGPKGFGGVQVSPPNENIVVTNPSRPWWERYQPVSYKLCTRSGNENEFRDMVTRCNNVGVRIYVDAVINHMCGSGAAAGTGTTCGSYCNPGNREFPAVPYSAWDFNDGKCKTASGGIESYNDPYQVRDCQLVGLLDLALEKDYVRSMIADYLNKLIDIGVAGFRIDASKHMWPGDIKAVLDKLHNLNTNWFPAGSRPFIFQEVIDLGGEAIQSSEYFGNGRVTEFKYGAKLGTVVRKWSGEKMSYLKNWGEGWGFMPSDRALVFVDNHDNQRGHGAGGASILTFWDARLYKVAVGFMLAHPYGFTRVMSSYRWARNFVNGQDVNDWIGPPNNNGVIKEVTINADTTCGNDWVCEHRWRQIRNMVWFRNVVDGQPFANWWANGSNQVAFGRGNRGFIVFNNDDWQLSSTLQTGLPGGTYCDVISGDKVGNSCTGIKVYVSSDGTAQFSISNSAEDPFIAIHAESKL
Nature of the test: α-Amylase inhibition assay. The settings on record: hog pancreas enzyme, starch substrate, 37 °C, DNS, pH 6.9; mean ± SD of triplicate. In kind it is biochemical. The protocol:
The α-amylase inhibition assay was performed according to the Ranilla method, which was slightly modified. Thus, 100 μL of extract was mixed with 250 μL of α-amylase from hog pancreas (EC 3.2.1.1) (0.5 mg/mL in 0.02 M sodium phosphate buffer, pH 6.9 with 0.006 M NaCl) and was incubated at 37 °C for 20 min; then, 250 μL of starch solution (1% in sodium phosphate buffer) was added, and the mixture was incubated at 37 °C for 30 min; then, 500 μL of dinitrosalicylic acid (DNS) was added and the mixture was boiled for 5 min. Finally, 5 mL of distilled water was added to the reaction mixture. […] The calculation of the results was carried out using the following formula:(4) % Amylase inhibition=ΔAcontrol−ΔAsample/ΔAcontrol × 100
as §1

A short description of test [4]: DPPH radical scavenging activity. The settings on record: absorbance at 517 nm after 10 min; mean ± SD of triplicate. On the technique in general: The DPPH test is a chemical assay of radical scavenging.
Protocol: The scavenging activity on the DPPH radical of samples was determined by measuring the decrease in the DPPH maximum absorbency at 517 nm after 10 min [64] and was calculated as follows:radical scavenging activity (%) = [(AB − AA)/AB] × 100(2) where: AB = control absorbance and AA = sample absorbance.
The nature of test [5]: Reducing power activity (iron (III) to iron (II) reduction). The settings on record: absorbance at 700 nm; mean ± SD of triplicate. The protocol: • ○ Reducing Power Activity (Iron (III) to iron (II) reduction) Reducing power was determined according to a previously described procedure. The absorbance was measured spectrophotometrically at 700 nm and calculation was carried out using the following formula:Reducing power (%) = [(AA − AB)/AA] × 100(3) where AA = sample absorbance; AB = control absorbance.

Setting [6] is: linoleic acid substrate, read-out: Inhibition of LOX IC50 (converted).

As for `C[C@@H]1O[C@@H](OC[C@H]2O[C@@H](Oc3c(-c4ccc(O)c(O)c4)oc4cc(O)cc(O)c4c3=O)[C@H](O)[C@@H](O)[C@@H]2O)[C@H](O)[C@H](O)[C@H]1O` [Rutin], the half-inhibitory concentration (IC50) in test [1] (setting [6]) was 36.6 µM.
Turning to `O=C(/C=C/c1ccc(O)c(O)c1)O[C@H](Cc1ccc(O)c(O)c1)C(=O)O` [Rosmarinic acid], the IC50 in test [2] was 0.5 µM; in test [3], 2.5 µM; in test [1] (Inhibition of LOX IC50, linoleic acid substrate) it was 84.1 µM.
Take `O=C(/C=C/c1ccc(O)c(O)c1)O[C@@H]1C[C@](O)(C(=O)O)C[C@@H](O)[C@H]1O` [Chlorogenic acid]: the results for the IC50 in test [3] and in test [1] (setting [6]) were 5.36 µM and 73.7 µM, respectively.
Regarding `O=C1O[C@H]([C@@H](O)CO)C(O)=C1O` [Ascorbic acid], the “% DPPH Inhibition” value in test [4] is 96.9 ± 3.6%. Moreover, the “Reducing Power %” value in test [5] is 34.5 ± 1.3%.

Usually IC50 stands for the concentration needed to halve the response being measured.
